According to patent publication US10590085B2, “Heterocyclic amides as kinase inhibitors” (GlaxoSmithKline Intellectual Property Development Limited, priority 2015, dated 2020):

These compounds were tested on human monocytic leukemia U937 cells (assay: necroptosis assay in U937 cells). Settings: Homo sapiens, U-937, U937 cells; viability by cellular ATP (Cell Titer-Glo); read-out: mean pIC50, inhibition of necrosis in U937 cells (converted).
Format: cell-based
Protocol: The efficacy of RIP1 inhibitors can be tested […] in vitro using a human monocytic leukemia U937 or mouse L929 fibrosarcoma cells in a necroptosis assay. As determined using the method described in He, S. et al. 2009. Cell 137(6):1100-1111 and International Patent Appln. No. PCT/IB2014/059004, now, International Patent Appln. Pub.
Viability was measured by quantitating cellular levels of ATP using the Cell Titer-Glo kit. All data are means±standard deviation of the mean.

SMILES	IC50 [µM]
O=C(c1ccccc1)N1CCC(C(=O)N2N=CCC2c2ccccc2)CC1 (stereo not drawn) [Example 164, (1-benzoylpiperidin-4-yl)(5-phenyl-4,5-dihydro-1H-pyrazol-1-yl)methanone]	0.001 to 0.1
O=C(c1n[nH]c2ccccc12)N1CCC(C(=O)N2N=CCC2c2ccccc2)CC1 (stereo not drawn) [Example 140, (1-(1H-indazole-3-carbonyl)piperidin-4-yl)(5-phenyl-4,5-dihydro-1H-pyrazol-1-yl)methanone]	0.001 to 0.1
O=C(c1cccs1)N1N=CCC1c1ccccc1 (stereo not drawn) [Example 174, (5-phenyl-4,5-dihydro-1H-pyrazol-1-yl)(thiophen-2-yl)methanone 2,2,2-trifluoroacetate]	~0.501
CC(C)(C)C(=O)N1N=CCC1c1cccc(C#N)c1 (stereo not drawn) [Example 80, 3-(1-pivaloyl-4,5-dihydro-1H-pyrazol-5-yl)benzonitrile]	0.001 to 0.1
O=C(C1CCCC1)N1N=CCC1c1ccccc1 (stereo not drawn) [Example 22, cyclopentyl(5-phenyl-4,5-dihydro-1H-pyrazol-1-yl)methanone]	0.001 to 0.1
CC(C)(C)C(=O)N1N=CCC1c1cncc(F)c1 (stereo not drawn) [Example 14, 1-(5-(5-fluoro-pyridin-3-yl)-4,5-dihydro-1H-pyrazol-1-yl)-2,2-dimethyl-propan-1-one]	0.001 to 0.1
O=C(C1CCN(c2ccccn2)CC1)N1N=CC[C@H]1c1ccccc1 [Example 177, (S)-(5-phenyl-4,5-dihydro-1H-pyrazol-1-yl)(1-(pyridin-2-yl)piperidin-4-yl)methanone]	0.001 to 0.1
CC(C)(C)C(=O)N1N=CCC1c1cccc(F)c1 (stereo not drawn) [Example 67, 1-(5-(3-fluoro-phenyl)-4,5-dihydro-1H-pyrazol-1-yl)-2,2-dimethylpropan-1-one 2,2,2-trifluoroacetate]	0.001 to 0.1
O=C(c1nc2ccccc2s1)N1CCC(C(=O)N2N=CCC2c2ccccc2)CC1 (stereo not drawn) [Example 139, beno[d]thiazol-2-yl(4-(5-phenyl-4,5-dihydro-1H-pyrazole-1-carbonyl)piperidin-1-yl)methanone]	0.001 to 0.1
O=C(c1cscn1)N1CCC(C(=O)N2N=CCC2c2ccccc2)CC1 (stereo not drawn) [Example 154, (5-phenyl-4,5-dihydro-1H-pyrazol-1-yl)(1-(thiazole-4-carbonyl)piperidin-4-yl)methanone]	0.001 to 0.1
N#Cc1ccc(C2CC=NN2C(=O)C2CCN(c3ncc(F)cn3)CC2)cc1 (stereo not drawn) [Example 188, 4-(1-(1-(5-fluoropyrimidin-2-yl)piperidine-4-carbonyl)-4,5-dihydro-1H-pyrazol-5-yl)benzonitrile]	0.001 to 0.1
O=C(c1ccc(F)cn1)N1CCC(C(=O)N2N=CCC2c2ccccc2)CC1 (stereo not drawn) [Example 108, (1-(5-fluoro-picolinoyl)piperidin-4-yl)(5-phenyl-4,5-dihydro-1H-pyrazol-1-yl)methanone]	0.001 to 0.1
O=C(C1CCN(c2ncccn2)CC1)N1N=CCC1c1ccccc1 (stereo not drawn) [Example 171, (5-phenyl-4,5-dihydro-1H-pyrazol-1-yl)(1-(pyrimidin-2-yl)piperidin-4-yl)methanone]	0.001 to 0.1
O=C(c1ccc(F)cc1)N1CCC(C(=O)N2N=CCC2c2ccccc2)CC1 (stereo not drawn) [Example 130, (1-(4-fluoro-benzoyl)piperidin-4-yl)(5-phenyl-4,5-dihydro-1H-pyrazol-1-yl)methanone]	0.001 to 0.1
CC(C)(C)C(=O)N1N=CC[C@H]1c1cccnc1 [Example 42, (S)-2,2-dimethyl-1-(5-(pyridin-3-yl)-4,5-dihydro-1H-pyrazol-1-yl)-propan-1-one]	~0.251
O=C(c1ccno1)N1CCC(C(=O)N2N=CCC2c2ccccc2)CC1 (stereo not drawn) [Example 151, isoxazol-5-yl(4-(5-phenyl-4,5-dihydro-1H-pyrazole-1-carbonyl)piperidin-1-yl)methanone]	0.001 to 0.1
O=C(C1CCN(c2ncc(F)cn2)CC1)N1N=CC[C@H]1c1cncc(F)c1 [Example 10, (S)-(5-(5-fluoropyridin-3-yl)-4,5-dihydro-1H-pyrazol-1-yl)(1-(5-fluoro-pyrimidin-2-yl)piperidin-4-yl)methanone]	0.001 to 0.1
O=C(c1cocn1)N1CCC(C(=O)N2N=CCC2c2ccccc2)CC1 (stereo not drawn) [Example 114, oxazol-4-yl(4-(5-phenyl-4,5-dihydro-1H-pyrazole-1-carbonyl)piperidin-1-yl)methanone]	0.001 to 0.1
Cc1ccc(C2CC=NN2C(=O)C(C)(C)C)c(F)c1 (stereo not drawn) [Example 53, 1-(5-(2-fluoro-4-methylphenyl)-4,5-dihydro-1H-pyrazol-1-yl)-2,2-dimethyl-propan-1-one]	0.001 to 0.1
O=C(c1cccnc1)N1N=CCC1c1ccccc1 (stereo not drawn) [Example 209]	~2
O=C(c1cnco1)N1CCC(C(=O)N2N=CCC2c2ccccc2)CC1 (stereo not drawn) [Example 147, oxazol-5-yl(4-(5-phenyl-4,5-dihydro-1H-pyrazole-1-carbonyl)piperidin-1-yl)methanone]	0.001 to 0.1

SMILES	IC50 [µM]
O=C(C1CCN(c2ccccc2)CC1)N1N=CCC1c1ccccc1 (stereo not drawn) [Example 18, (5-phenyl-4,5-dihydro-1H-pyrazol-1-yl)(1-phenylpiperidin-4-yl)-methanone]	0.001 to 0.1
O=C(c1cccc(Cl)n1)N1CCC(C(=O)N2N=CCC2c2ccccc2)CC1 (stereo not drawn) [Example 105, (1-(6-chloro-picolinoyl)piperidin-4-yl)(5-phenyl-4,5-dihydro-1H-pyrazol-1-yl)methanone]	0.001 to 0.1
Cc1ncc(C(=O)N2CCC(C(=O)N3N=CCC3c3ccccc3)CC2)s1 (stereo not drawn) [Example 124, (2-methylthiazol-5-yl)(4-(5-phenyl-4,5-dihydro-1H-pyrazole-1-carbonyl)piperidin-1-yl)methanone]	0.001 to 0.1
O=C(C1CCN(c2ccccc2)CC1)N1N=CC[C@H]1c1ccccc1 [Example 19, (S)-(5-phenyl-4,5-dihydro-1H-pyrazol-1-yl)(1-phenyl-piperidin-4-yl)-methanone]	0.001 to 0.1
O=C(C1CCN(c2ccc(C(F)(F)F)cn2)CC1)N1N=CCC1c1ccccc1 (stereo not drawn) [Example 179, (5-phenyl-4,5-dihydro-1H-pyrazol-1-yl)(1-(5-(trifluoromethyl)pyridin-2-yl)piperidin-4-yl)methanone 2,2,2-trifluoroacetate]	0.001 to 0.1
O=C(c1ccns1)N1CCC(C(=O)N2N=CCC2c2ccccc2)CC1 (stereo not drawn) [Example 125, isothiazol-5-yl(4-(5-phenyl-4,5-dihydro-1H-pyrazole-1-carbonyl)piperidin-1-yl)methanone]	0.001 to 0.1
Cc1cc(F)cc(C2CC=NN2C(=O)C(C)(C)C)c1 (stereo not drawn) [Example 76, 1-(5-(3-fluoro-5-methylphenyl)-4,5-dihydro-1H-pyrazol-1-yl)-2,2-dimethyl-propan-1-one]	0.001 to 0.1
Cc1ccc(C(=O)N2CCC(C(=O)N3N=CCC3c3ccccc3)CC2)s1 (stereo not drawn) [Example 122, (5-methylthiophen-2-yl)(4-(5-phenyl-4,5-dihydro-1H-pyrazole-1-carbonyl)piperidin-1-yl)methanone]	0.001 to 0.1
O=C(C1CCN(c2ccccn2)CC1)N1N=CCC1c1ccccc1 (stereo not drawn) [Example 176, (5-phenyl-4,5-dihydro-1H-pyrazol-1-yl)(1-(pyridin-2-yl)piperidin-4-yl)methanonc 2,2,2-trifluoroacctate]	0.001 to 0.1
O=C(C1CCN(c2ncc(F)cn2)CC1)N1N=CCC1c1cncc(F)c1 (stereo not drawn) [Example 9]	0.001 to 0.1
Cc1ccc(C2CC=NN2C(=O)C(C)(C)C)cc1F (stereo not drawn) [Example 54, 1-(5-(3-fluoro-4-methylphenyl)-4,5-dihydro-1H-pyrazol-1-yl)-2,2-dimethyl-propan-1-one]	0.001 to 0.1
CC(C)(C)C(=O)N1N=CC[C@H]1c1ccc(C#N)cc1 [Example 79, (S)-4-(1-pivaloyl-4,5-dihydro-1H-pyrazol-5-yl)-benzonitrile]	0.001 to 0.1
CC1(C(=O)N2N=CCC2c2ccccc2)CCN(c2ncc(F)cn2)CC1 (stereo not drawn) [Example 190, (1-(5-fluoropyrimidin-2-yl)-4-methylpiperidin-4-yl)(5-phenyl-4,5-dihydro-1H-pyrazol-1-yl)methanone]	0.001 to 0.1
Cn1cccc1C(=O)N1CCC(C(=O)N2N=CCC2c2ccccc2)CC1 (stereo not drawn) [Example 175, (1-methyl-1H-pyrrol-2-yl)(4-(5-phenyl-4,5-dihydro-1H-pyrazole-1-carbonyl)piperidin-1-yl)methanone 2,2,2-trifluoroacetalc]	0.001 to 0.1
O=C(c1ccccc1)N1N=CCC1c1ccccc1 (stereo not drawn) [Example 64, phenyl(5-phenyl-4,5-dihydro-1H-pyrazol-1-yl)-methanone 2,2,2-trifluoroacetate]	~0.316
O=C(C1CCN(c2nc3ccccc3o2)CC1)N1N=CCC1c1ccccc1 (stereo not drawn) [Example 180, (1-(benzo[d]oxazol-2-yl)piperidin-4-yl)(5-phenyl-4,5-dihydro-1H-pyrazol-1-yl)methanone 2,2,2-trifluoroacetate]	0.001 to 0.1
O=C(c1ccc(F)cc1F)N1CCC(C(=O)N2N=CCC2c2ccccc2)CC1 (stereo not drawn) [Example 131, (1-(2,4-difluorobenzoyl)piperidin-4-yl)(5-phenyl-4,5-dihydro-1H-pyrazol-1-yl)-methanone]	0.001 to 0.1
CC(C)(C)C(=O)N1N=CCC1c1cccc(Cl)c1 (stereo not drawn) [Example 43, 1-(5-(3-chlorophenyl)-4,5-dihydro-1H-pyrazol-1-yl)-2,2-dimethyl propan-l-one]	0.001 to 0.1
Cc1cccc(C(=O)N2N=CCC2c2ccccc2)c1 (stereo not drawn) [Example 23, (5-phenyl-4,5-dihydro-1H-pyrazol-1-yl)(m-tolyl) methanone]	~0.501
O=C(C1CCN(c2ncc(F)cn2)CC1)N1N=CCC1c1ccc2c(c1)CCC2 (stereo not drawn) [Example 184, (5-(2.3-dihydro-1H-inden-5-yl)-4,5-dihvdro-1H-pyrazol-1-yl)(1-(5-fluoropyrimidin-2-yl)piperidin-4-yl)methanone]	0.001 to 0.1
CC1=NN(C(=O)C(C)(C)C)C(c2ccccc2)C1 (stereo not drawn) [Example 81, 2,2-dimethyl-1-(3-methyl-5-phenyl-4,5-dihydro-1H-pyrazol-1-yl)-propan-1-one]	~0.631
